US8637439B2, “Bathing gel with improved environmental profile” (Coty Inc., priority 2009, dated 2014)

Columns and labels:
[1] = system: aquatic trophic levels (fish, crustaceous, algae); test: Acute aquatic toxicity (aquatic trophic levels); format: in vivo; conditions: L(E)C50/SFacute
From the text: (§1) A comparison of the relative aquatic toxicity profile of the long-chain alkyl hydroxyalkyl cellulose derivative compared to anionic alketh surfactant is shown in Table 3.
(§2) The terms used are defined as follows: • LC50 or EC50: Lethal or effect concentration 50=Concentration in water having 50% chance of causing adverse effects or death to aquatic life) • SFacute: Safety Factor, determined according the number of trophic levels (fish, crustaceous, algae) studied (the largest, the best) • TFacute: L(E)C50/SFacute • NOEC: No observed effect concentration=The highest concentration for which the difference from the control group is not statistically significant in a long term study • SFchronic: Safety Factor, determined according the number of trophic levels (fish, crustaceous, algae) studied • TFchronic: NOEC/SFchronic

[2] = system: aquatic trophic levels (fish, crustaceous, algae); test: Chronic aquatic toxicity (aquatic trophic levels); format: in vivo
From the text: as §1, §2

C 12/15 A 1-3 EO sulfate gave a TFacute [1] of 0.0041, a TFchronic ([2]; NOEC/SFchronic) of 0.01 and an NOEC ([2]; chronic toxicity, long term study) of 0.1.
